ChEMBL document CHEMBL6109103, “Dodecapeptides derived from human cathelicidin with potent activity against carbapenem-resistant Acinetobacter baumannii” (Eur J Med Chem, 2025)
Converted amounts (≈) assume the structure as drawn. Positions of bridges follow the written chain, without caps; N, C: chain ends. Non-standard residues stand in square brackets, D forms with d. Residues, ends and D or L forms follow the SMILES beside them. S5 = C=CCCC[C@](C)(N)C(=O)O

Legend:
Assay type in all cases: functional
Acinetobacter baumannii [1] = experiment: Antibacterial activity against multidrug-resistant Acinetobacter baumannii assessed as inhibition of bacterial growth incubated for 24 hrs by broth dilution assay
Acinetobacter baumannii [2] = experiment: Antibacterial activity against Acinetobacter baumannii ATCC 19606 assessed as inhibition of bacterial growth incubated for 24 hrs by broth dilution assay
Staphylococcus aureus [3] = experiment: Antibacterial activity against Methicillin-resistant Staphylococcus aureus ATCC 43300 assessed as inhibition of bacterial growth incubated for 24 hrs by broth dilution assay
Staphylococcus aureus [4] = experiment: Antibacterial activity against Staphylococcus aureus […] assessed as inhibition of bacterial growth incubated for 24 hrs by broth dilution assay

Row | Molecule | MIC (Acinetobacter baumannii [1]) | MIC (Acinetobacter baumannii [2]) | MIC (Staphylococcus aureus [3]) | MIC (Staphylococcus aureus [4])
1 | CC[C@H](C)[C@H](NC(=O)[C@H](CCCCN)NC(=O)[C@@H](NC(=O)[C@]1(C)CCC/C=C\CCC[C@](C)(NC(=O)[C@@H](N)CCCCN)C(=O)N[C@@H]([C@@H](C)CC)C(=O)N[C@@H](C(C)C)C(=O)N[C@@H](CCCNC(=N)N)C(=O)N1)[C@@H](C)CC)C(=O)N[C@@H](Cc1ccccc1)C(=O)N[C@@H](CC(C)C)C(=O)N[C@@H](CCCNC(=N)N)C(=O)O (H-K[S5]IVR[S5]IKIFLR-OH; staple (Z) 2-6) | 10 µg/mL (≈ 6.51 µM) | 10 µg/mL (≈ 6.51 µM) | 320 µg/mL (≈ 208 µM) | 320 µg/mL (≈ 208 µM)
2 | H-NLVPRTES-OH | > 320 µg/mL | > 320 µg/mL | > 320 µg/mL | > 320 µg/mL
3 | H-KRIVIRIKDFLR-OH | 80 µg/mL | 160 µg/mL | > 320 µg/mL | > 320 µg/mL
4 | H-KRIVKRIKIFLR-OH | 10 µg/mL | 20 µg/mL | > 320 µg/mL | 80 µg/mL
5 | H-KRIVQRIKRFLR-OH | 80 µg/mL | 160 µg/mL | > 320 µg/mL | > 320 µg/mL
6 | O=C(O)c1cn(C2CC2)c2cc(N3CCNCC3)c(F)cc2c1=O [CIPROFLOXACIN] | 320 µg/mL (≈ 966 µM) | 2.5 µg/mL (≈ 7.54 µM) | 160 µg/mL (≈ 483 µM) | 2.5 µg/mL (≈ 7.54 µM)
7 | H-KRIVKRIKDFLR-OH | 80 µg/mL | 160 µg/mL | > 320 µg/mL | > 320 µg/mL
8 | CC[C@H](C)[C@@H]1NC(=O)[C@H](CCCNC(=N)N)NC(=O)[C@H](CCCNC(=N)N)NC(=O)[C@@](C)(NC(=O)[C@@H](NC(=O)[C@H](CCCNC(=N)N)NC(=O)[C@@H](N)CCCCN)[C@@H](C)CC)CCC/C=C\CCC[C@@](C)(C(=O)N[C@@H](CCCNC(=N)N)C(=O)O)NC(=O)[C@H](Cc2ccccc2)NC(=O)[C@H]([C@@H](C)CC)NC(=O)[C@H](CCCCN)NC1=O (H-KRI[S5]RRIKIF[S5]R-OH; staple (Z) 4-11) | > 320 µg/mL | > 320 µg/mL | > 320 µg/mL | > 320 µg/mL
9 | CC[C@H](C)[C@@H]1NC(=O)[C@H](CCCCN)NC(=O)[C@@](C)(NC(=O)[C@H](CCCNC(=N)N)NC(=O)[C@H](CCCNC(=N)N)NC(=O)[C@@H](NC(=O)[C@@H](NC(=O)[C@H](CCCNC(=N)N)NC(=O)[C@@H](N)CCCCN)[C@@H](C)CC)C(C)C)CCC/C=C\CCC[C@@](C)(C(=O)N[C@@H](CCCNC(=N)N)C(=O)O)NC(=O)[C@H](Cc2ccccc2)NC1=O (H-KRIVRR[S5]KIF[S5]R-OH; staple (Z) 7-11) | > 320 µg/mL | > 320 µg/mL | > 320 µg/mL | > 320 µg/mL
10 | H-KRIVRRIKKFLR-OH | 160 µg/mL | 80 µg/mL | > 320 µg/mL | > 320 µg/mL
11 | H-KRIVKRIKKFLR-OH | > 320 µg/mL | 160 µg/mL | 160 µg/mL | > 320 µg/mL
12 | H-LLGDFFRKSKEKIGKEF-OH | > 320 µg/mL | > 320 µg/mL | > 320 µg/mL | > 320 µg/mL
13 | CC[C@H](C)[C@@H]1NC(=O)[C@H](CCCNC(=N)N)NC(=O)[C@@](C)(N)CCC/C=C\CCC[C@@](C)(C(=O)N[C@H](C(=O)N[C@@H](Cc2ccccc2)C(=O)N[C@@H](CC(C)C)C(=O)N[C@@H](CCCNC(=N)N)C(=O)O)[C@@H](C)CC)NC(=O)[C@H]([C@@H](C)CC)NC(=O)[C@H](CCCNC(=N)N)NC(=O)[C@H](CCCNC(=N)N)NC(=O)[C@H](C(C)C)NC1=O (H-[S5]RIVRRI[S5]IFLR-OH; staple (Z) 1-8) | 40 µg/mL (≈ 25.1 µM) | 80 µg/mL (≈ 50.2 µM) | 160 µg/mL (≈ 100 µM) | 320 µg/mL (≈ 201 µM)
14 | H-KRIVIRIKRFLR-OH | 10 µg/mL | 20 µg/mL | 80 µg/mL | 160 µg/mL
15 | H-KRIVKRIKRFLR-OH | 80 µg/mL | 80 µg/mL | > 320 µg/mL | > 320 µg/mL
16 | CC[C@H](C)[C@H](NC(=O)[C@H](CCCNC(=N)N)NC(=O)[C@@H](N)CCCCN)C(=O)N[C@H](C(=O)N[C@@H](CCCNC(=N)N)C(=O)N[C@@]1(C)CCC/C=C/CCC[C@@](C)(C(=O)N[C@@H](CC(C)C)C(=O)N[C@@H](CCCNC(=N)N)C(=O)O)NC(=O)[C@H]([C@@H](C)CC)NC(=O)[C@H](CCCCN)NC(=O)[C@H]([C@@H](C)CC)NC1=O)C(C)C (H-KRIVR[S5]IKI[S5]LR-OH; staple (E) 6-10) | 10 µg/mL (≈ 6.47 µM) | 10 µg/mL (≈ 6.47 µM) | 80 µg/mL (≈ 51.8 µM) | 80 µg/mL (≈ 51.8 µM)
17 | CC[C@H](C)[C@H](NC(=O)[C@H](CCCCN)NC(=O)[C@@H](NC(=O)[C@H](CCCNC(=N)N)NC(=O)[C@]1(C)CCC/C=C/CCC[C@](C)(N)C(=O)N[C@@H](CCCNC(=N)N)C(=O)N[C@@H]([C@@H](C)CC)C(=O)N[C@@H](C(C)C)C(=O)N1)[C@@H](C)CC)C(=O)N[C@@H](Cc1ccccc1)C(=O)N[C@@H](CC(C)C)C(=O)N[C@@H](CCCNC(=N)N)C(=O)O (H-[S5]RIV[S5]RIKIFLR-OH; staple (E) 1-5) | 10 µg/mL (≈ 6.39 µM) | 10 µg/mL (≈ 6.39 µM) | 160 µg/mL (≈ 102 µM) | 160 µg/mL (≈ 102 µM)
18 | CC[C@H](C)[C@@H]1NC(=O)[C@H](CCCNC(=N)N)NC(=O)[C@H](CCCNC(=N)N)NC(=O)[C@H](C(C)C)NC(=O)[C@H]([C@@H](C)CC)NC(=O)[C@@](C)(NC(=O)[C@@H](N)CCCCN)CCC/C=C\CCC[C@@](C)(C(=O)N[C@@H](Cc2ccccc2)C(=O)N[C@@H](CC(C)C)C(=O)N[C@@H](CCCNC(=N)N)C(=O)O)NC(=O)[C@H](CCCCN)NC1=O (H-K[S5]IVRRIK[S5]FLR-OH; staple (Z) 2-9) | 160 µg/mL (≈ 101 µM) | 320 µg/mL (≈ 203 µM) | > 320 µg/mL | > 320 µg/mL
19 | H-KRIVIRIKIFLR-OH | 20 µg/mL | 20 µg/mL | 80 µg/mL | 40 µg/mL
20 | H-KRIVRRIKRFLR-OH | 320 µg/mL | 320 µg/mL | > 320 µg/mL | > 320 µg/mL
21 | CC[C@H](C)[C@H](NC(=O)[C@H](CCCCN)NC(=O)[C@]1(C)CCC/C=C\CCC[C@](C)(NC(=O)[C@H](CCCNC(=N)N)NC(=O)[C@@H](N)CCCCN)C(=O)N[C@@H](C(C)C)C(=O)N[C@@H](CCCNC(=N)N)C(=O)N[C@@H](CCCNC(=N)N)C(=O)N1)C(=O)N[C@@H](Cc1ccccc1)C(=O)N[C@@H](CC(C)C)C(=O)N[C@@H](CCCNC(=N)N)C(=O)O (H-KR[S5]VRR[S5]KIFLR-OH; staple (Z) 3-7) | 40 µg/mL (≈ 24.7 µM) | 320 µg/mL (≈ 197 µM) | 160 µg/mL (≈ 98.6 µM) | 160 µg/mL (≈ 98.6 µM)
22 | CC[C@H](C)[C@@H]1NC(=O)[C@H](CCCCN)NC(=O)[C@H]([C@@H](C)CC)NC(=O)[C@H](CCCNC(=N)N)NC(=O)[C@@](C)(NC(=O)[C@@H](NC(=O)[C@@H](NC(=O)[C@H](CCCNC(=N)N)NC(=O)[C@@H](N)CCCCN)[C@@H](C)CC)C(C)C)CCC/C=C\CCC[C@@](C)(C(=O)O)NC(=O)[C@H](CC(C)C)NC(=O)[C@H](Cc2ccccc2)NC1=O (H-KRIV[S5]RIKIFL[S5]-OH; staple (Z) 5-12) | 40 µg/mL (≈ 26 µM) | 80 µg/mL (≈ 52.1 µM) | 80 µg/mL (≈ 52.1 µM) | > 320 µg/mL
23 | CC[C@H](C)[C@@H]1NC(=O)[C@H](CCCNC(=N)N)NC(=O)[C@H](CCCNC(=N)N)NC(=O)[C@H](C(C)C)NC(=O)[C@@](C)(NC(=O)[C@H](CCCNC(=N)N)NC(=O)[C@@H](N)CCCCN)CCC/C=C/CCC[C@@](C)(C(=O)N[C@@H](CC(C)C)C(=O)N[C@@H](CCCNC(=N)N)C(=O)O)NC(=O)[C@H]([C@@H](C)CC)NC(=O)[C@H](CCCCN)NC1=O (H-KR[S5]VRRIKI[S5]LR-OH; staple (E) 3-10) | 10 µg/mL (≈ 6.3 µM) | 20 µg/mL (≈ 12.6 µM) | 80 µg/mL (≈ 50.4 µM) | 80 µg/mL (≈ 50.4 µM)
24 | H-KRIVQRIKIFLR-OH | 20 µg/mL | 40 µg/mL | > 320 µg/mL | 160 µg/mL
25 | H-KRIVRRIKDFLR-OH | 320 µg/mL | 320 µg/mL | > 320 µg/mL | > 320 µg/mL
26 | CC[C@H](C)[C@H](NC(=O)[C@H](CCCNC(=N)N)NC(=O)[C@@H](N)CCCCN)C(=O)N[C@H](C(=O)N[C@@H](CCCNC(=N)N)C(=O)N[C@@H](CCCNC(=N)N)C(=O)N[C@H](C(=O)N[C@@]1(C)CCC/C=C\CCC[C@@](C)(C(=O)O)NC(=O)[C@H](CC(C)C)NC(=O)[C@H](Cc2ccccc2)NC(=O)[C@H]([C@@H](C)CC)NC1=O)[C@@H](C)CC)C(C)C (H-KRIVRRI[S5]IFL[S5]-OH; staple (Z) 8-12) | 10 µg/mL (≈ 6.39 µM) | 10 µg/mL (≈ 6.39 µM) | 40 µg/mL (≈ 25.6 µM) | 80 µg/mL (≈ 51.1 µM)
27 | H-KRIVIRIKKFLR-OH | 40 µg/mL | 80 µg/mL | 320 µg/mL | 160 µg/mL
28 | H-KRIVQRIKKFLR-OH | 20 µg/mL | 80 µg/mL | > 320 µg/mL | > 320 µg/mL
29 | CC[C@H](C)[C@@H]1NC(=O)[C@H](CCCNC(=N)N)NC(=O)[C@@](C)(NC(=O)[C@@H](NC(=O)[C@@H](NC(=O)[C@H](CCCNC(=N)N)NC(=O)[C@@H](N)CCCCN)[C@@H](C)CC)C(C)C)CCC/C=C\CCC[C@@](C)(C(=O)N[C@@H](Cc2ccccc2)C(=O)N[C@@H](CC(C)C)C(=O)N[C@@H](CCCNC(=N)N)C(=O)O)NC(=O)[C@H](CCCCN)NC1=O (H-KRIV[S5]RIK[S5]FLR-OH; staple (Z) 5-9) | 40 µg/mL (≈ 25.3 µM) | 40 µg/mL (≈ 25.3 µM) | > 320 µg/mL | > 320 µg/mL
30 | CO/N=C(\C(=O)N[C@@H]1C(=O)N2C(C(=O)O)=C(COC(C)=O)CS[C@H]12)c1csc(N)n1 [CEFOTAXIME] | > 320 µg/mL | 20 µg/mL (≈ 43.9 µM) | > 320 µg/mL | 2.5 µg/mL (≈ 5.49 µM)
